Assay results taken from patent US20100125053A1, “Allosteric Modulation of the Dopamine Transporter Protein for the Treatment of HIV-1 Induced Neurologic Dysfunction” (priority 2008, published 2010).

System: striatal synaptosomes
Test: [3H]leucine uptake assay in rat striatal synaptosomes (electrochemical gradients)
Format: cell-based
Settings: 15 min preincubation, [3H]leucine 10 min
Description: [^3H]Leucine Uptake Assay. […] The uptake assay was performed in duplicate with a final volume of 250 μl. […] TatΔ31-61 and leucine were chosen as negative and positive controls, respectively. Assay tubes were placed in an oxygenated metabolic shaker at 34° C. for 15 min. Subsequently, 1 μM [^3H]leucine (final concentration, 25 μl) was added to each tube and incubation was continued for 10 min at 34° C. in the metabolic shaker. […] Nonspecific uptake for [^3H]leucine and [^3H]DA was determined in the presence of 10 mM L-lysine and 10 μM nomifensine, respectively. Incubation was terminated by the addition of 3 ml of ice-cold assay buffer, followed by immediate filtration through Whatman GF/B glass fiber filters. Filters were washed 3 times with 3 ml ice-cold assay buffer using a Brandel cell harvester.

CC(C)C[C@H](N)C(=O)O [leucine]
inhibition at 1 µM (1 μM): ~10% | inhibition at 10 µM (10 μM, read-out: inhibition / decrease of [3H]leucine uptake): ~40%
